Reference: ChEMBL document CHEMBL5352446, “Synthesis and biological evaluation of a novel c-Myc inhibitor against colorectal cancer via blocking c-Myc/Max heterodimerization and disturbing its DNA binding” (Eur J Med Chem, 2022)
Calls of active or inactive are those of the source. The rule behind the calls is not given here.

How the values were obtained:
HCT-116 [1] = test: cells; settings: Homo sapiens, HCT-116, 72 h
Description: Antiproliferative activity against human HCT-116 cells incubated for 72 hrs by MTT assay

[2] = Toxicity in BALB/c mouse xenografted with human HT-29 cells assessed as kidney damage at 40 to 80 mg/kg, ip measured after 21 days by H and E staining based assay; type: organism-based; settings: in vivo, 504 h, dose 40-80 mg/kg, time 21 day
HT-29 [3] = test: Antitumor activity against human HT-29 cells xenografted in BALB/c mouse assessed as tumor growth inhibition at 40 mg/kg, ip administered daily for 3 weeks by caliper method; type: functional; settings: HT-29, 504 h, read-out: TGI
HCT-116 [4] = test: Inhibition of cell migration in human HCT-116 cells incubated for 48 hrs by wound healing analysis; type: functional, cell-based
[5] = Toxicity in BALB/c mouse xenografted with human HT-29 cells assessed as body weight loss at 40 to 80 mg/kg, ip measured after 21 days; type: organism-based; settings: in vivo, 504 h, dose 40-80 mg/kg, time 21 day
HT-29 [6] = test: Induction of apoptosis in human HT-29 cells assessed as necrotic cells at 10 uM incubated for 24 hrs by FITC Annexin-V and PI staining based flow cytometry analysis (reference value: 0.13%); type: functional
HT-29 [7] = test: Antitumor activity against human HT-29 cells xenografted in ip dosed BALB/c mouse assessed as tumor growth inhibition administered daily for 3 weeks by caliper method; type: functional, organism-based; settings: dose 40-80 mg/kg
HT-29 [8] = test: Induction of apoptosis in human HT-29 cells assessed as viable cells at 2.5 uM incubated for 24 hrs by FITC Annexin-V and PI staining based flow cytometry analysis (reference value: 96.94%); type: functional; settings: read-out: Activity
HT-29 [9] = test: Induction of apoptosis in human HT-29 cells assessed as upregulation of cleaved caspase 9 expression incubated for 24 hrs by Western blot analysis; type: functional, cell-based; settings: dose 2.5-10 µM
HT-29 [10] = test: Induction of apoptosis in human HT-29 cells assessed as upregulation of Bax expression incubated for 24 hrs by Western blot analysis; type: functional, cell-based; settings: dose 2.5-10 µM
HT-29 [11] = test: Induction of apoptosis in human HT-29 cells assessed as late apoptotic cells at 1.25 uM incubated for 24 hrs by FITC Annexin-V and PI staining based flow cytometry analysis (reference value: 0.78%); type: functional
HT-29 [12] = test: Induction of cell cycle arrest in human HT-29 cells assessed as accumulation of cells at S phase at 1.25 uM incubated for 24 hrs by propidium iodide staining based flow cytometry analysis (reference value: 12.01 %); type: functional
HCT-116 [13] = test: Downregulation of c-Myc expression in human HCT-116 cells at 10 uM incubated for 24 hrs by Western blot analysis; type: functional, cell-based
HT-29 [14] = test: Induction of apoptosis in human HT-29 cells assessed as early apoptotic cells at 0.625 uM incubated for 24 hrs by FITC Annexin-V and PI staining based flow cytometry analysis (reference value: 2.15%); type: functional
HT-29 [15] = test: Induction of apoptosis in human HT-29 cells assessed as necrotic cells at 1.25 uM incubated for 24 hrs by FITC Annexin-V and PI staining based flow cytometry analysis (reference value: 0.13%); type: functional
Homo sapiens [16] = species on record: Homo sapiens; test: Inhibition of human c-Myc (353 to 439 residues)/Max(S) (151 residues) expressed in Escherichia coli BL21(DE3) binding to biotinylated double-stranded DNA oligonucleotide 5'-CACCCGGTCACTGGCCTACAC-3' (unknown origin) at 20 uM preincubated for 90 mins followed by oligonucleotide addition for 25 mins by EMSA; settings: time 115.0 min
[17] = Toxicity in BALB/c mouse xenografted with human HT-29 cells assessed as heart damage at 40 to 80 mg/kg, ip measured after 21 days by H and E staining based assay; type: organism-based; settings: in vivo, 504 h, dose 40-80 mg/kg, time 21 day
HCT-15 = test: Antiproliferative activity against human HCT-15 cells incubated for 72 hrs by MTT assay; type: functional, cell-based; settings: HCT-15, 72 h
HT-29 [18] = test: Induction of apoptosis in human HT-29 cells assessed as late apoptotic cells at 2.5 uM incubated for 24 hrs by FITC Annexin-V and PI staining based flow cytometry analysis (reference value: 0.78%); type: functional
HT-29 [19] = test: Induction of apoptosis in human HT-29 cells assessed as viable cells at 0.625 uM incubated for 24 hrs by FITC Annexin-V and PI staining based flow cytometry analysis (reference value: 96.94%); type: functional; settings: read-out: Activity
Homo sapiens [20] = species on record: Homo sapiens; test: Inhibition of human Myc (353 to 439 residues)/Max(S) (151 residues) expressed in Escherichia coli BL21(DE3) binding to biotinylated double-stranded DNA oligonucleotide 5'-CACCCGGTCACTGGCCTACAC-3' (unknown origin) preincubated for 90 mins followed by oligonucleotide addition for 25 mins by EMSA; settings: time 115.0 min
L02 = test: Cytotoxicity against human L02 cells incubated for 72 hrs by MTT assay; type: toxicity, cell-based; settings: l02, 72 h
HT-29 [21] = test: Inhibition of colony formation in human HT-29 cells measured after 14 days by crystal violet staining based assay; type: functional, cell-based; settings: dose 0.25-2 µM, time 14.0 day
HT-29 [22] = test: Induction of apoptosis in human HT-29 cells assessed as viable cells at 5 uM incubated for 24 hrs by FITC Annexin-V and PI staining based flow cytometry analysis (reference value: 96.94%); type: functional; settings: read-out: Activity
HCT-8 = test: Antiproliferative activity against human HCT-8 cells incubated for 72 hrs by MTT assay; type: functional, cell-based; settings: HCT-8, 72 h
HT-29 [23] = test: Induction of apoptosis in human HT-29 cells assessed as upregulation of cleaved caspase 3 expression incubated for 24 hrs by Western blot analysis; type: functional, cell-based; settings: dose 2.5-10 µM
HT-29 [24] = test: Induction of cell cycle arrest in human HT-29 cells assessed as accumulation of cells at G2 phase at 0.625 uM incubated for 24 hrs by propidium iodide staining based flow cytometry analysis (reference value: 16.33 %); type: functional
HT-29 [25] = test: Induction of apoptosis in human HT-29 cells assessed as upregulation of cleaved PARP expression incubated for 24 hrs by Western blot analysis; type: functional, cell-based; settings: dose 2.5-10 µM
HT-29 [26] = test: Induction of cell cycle arrest in human HT-29 cells assessed as accumulation of cells at S phase at 5 uM incubated for 24 hrs by propidium iodide staining based flow cytometry analysis (reference value: 12.01 %); type: functional
HT-29 [27] = test: Induction of apoptosis in human HT-29 cells assessed as necrotic cells at 5 uM incubated for 24 hrs by FITC Annexin-V and PI staining based flow cytometry analysis (reference value: 0.13%); type: functional
HT-29 [28] = test: Induction of apoptosis in human HT-29 cells assessed as early apoptotic cells at 1.25 uM incubated for 24 hrs by FITC Annexin-V and PI staining based flow cytometry analysis (reference value: 2.15%); type: functional
[29] = Toxicity in BALB/c mouse xenografted with human HT-29 cells assessed as spleen damage at 40 mg/kg, ip measured after 21 days by H and E staining based assay; type: organism-based; settings: in vivo, 504 h, time 21 day
[30] = Toxicity in BALB/c mouse xenografted with human HT-29 cells assessed as spleen damage at 40 to 80 mg/kg, ip measured after 21 days by H and E staining based assay; type: organism-based; settings: in vivo, 504 h, dose 40-80 mg/kg, time 21 day
HT-29 [31] = test: Antitumor activity against human HT-29 cells xenografted in BALB/c mouse assessed as tumor growth inhibition at 80 mg/kg, ip administered daily for 3 weeks by caliper method; type: functional; settings: HT-29, 504 h, read-out: TGI
HT-29 [32] = test: Induction of cell cycle arrest in human HT-29 cells assessed as accumulation of cells at G2 phase at 5 uM incubated for 24 hrs by propidium iodide staining based flow cytometry analysis (reference value: 16.33 %); type: functional

**Q.** For COc1cc(Oc2ccc(Nc3ccc(CCCO)cc3)cc2)cc(OC)c1CNCCc1ccc(C(F)(F)F)cc1, which IC50 (HCT-116 [1]) is on record?
**A.** 0.64 µM

**Q.** What about the Activity [2] of the same molecule?
**A.** Non-Toxic

**Q.** And the inhibition in vivo at 40 mg/kg (HT-29 [3])?
**A.** 65.5%

**Q.** And the inhibition (HCT-116 [4])?
**A.** Active

**Q.** What about the Activity [5] of the same molecule?
**A.** Non-Toxic

**Q.** What about the Activity (HT-29 [6]) of the same molecule?
**A.** 1.87%

**Q.** And the Activity (HT-29 [7])?
**A.** Dose-Dependent Effect

**Q.** What about the viability at 2.5 µM (HT-29 [8]) of the same molecule?
**A.** 69.6%

**Q.** What about the Activity (HT-29 [9]) of the same molecule?
**A.** Dose-Dependent Effect

**Q.** What about the Activity (HT-29 [10]) of the same molecule?
**A.** Dose-Dependent Effect

**Q.** What about the Activity (HT-29 [11]) of the same molecule?
**A.** 4.55%

**Q.** And the Activity (HT-29 [12])?
**A.** 13.16%

**Q.** What about the Activity (HCT-116 [13]) of the same molecule?
**A.** Active

**Q.** What about the Activity (HT-29 [14]) of the same molecule?
**A.** 5.9%

**Q.** And the Activity (HT-29 [15])?
**A.** 1.72%

**Q.** What about the inhibition (Homo sapiens [16]) of the same molecule?
**A.** 100%

**Q.** What about the Activity [17] of the same molecule?
**A.** Non-Toxic

**Q.** What about the IC50 (HCT-15) of the same molecule?
**A.** 2.34 µM

**Q.** What about the Activity (HT-29 [18]) of the same molecule?
**A.** 7.03%

**Q.** What about the viability at 0.625 µM (HT-29 [19]) of the same molecule?
**A.** 89.5%

**Q.** And the inhibition (Homo sapiens [20])?
**A.** Dose-Dependent Effect

**Q.** And the Activity (L02)?
**A.** Non-Toxic

**Q.** What about the inhibition (HT-29 [21]) of the same molecule?
**A.** Dose-Dependent Effect

**Q.** What about the viability at 5 µM (HT-29 [22]) of the same molecule?
**A.** 69%

**Q.** What about the IC50 (HCT-8) of the same molecule?
**A.** 3.12 µM

**Q.** What about the Activity (HT-29 [23]) of the same molecule?
**A.** Dose-Dependent Effect

**Q.** What about the Activity (HT-29 [24]) of the same molecule?
**A.** 11.95%

**Q.** And the Activity (HT-29 [25])?
**A.** Dose-Dependent Effect

**Q.** What about the Activity (HT-29 [26]) of the same molecule?
**A.** 12.16%

**Q.** And the Activity (HT-29 [27])?
**A.** 1.29%

**Q.** And the Activity (HT-29 [28])?
**A.** 12.78%

**Q.** And the Activity [29]?
**A.** Toxic

**Q.** And the Activity [30]?
**A.** Non-Toxic

**Q.** And the inhibition in vivo at 80 mg/kg (HT-29 [31])?
**A.** 78.4%

**Q.** What about the Activity (HT-29 [32]) of the same molecule?
**A.** 8.51%
